The source of these data is ChEMBL document CHEMBL1146249, “Antiviral 2,5-disubstituted imidazo[4,5-c]pyridines: further optimization of anti-hepatitis C virus activity” (Bioorg Med Chem Lett, 2007).

Series [1] is described as follows: Selectivity index, ratio of CC50 for Huh 5-2 cells to EC50 for HCV. The format is functional.
The subject of series [2] is Bovine viral diarrhea virus 1. The experiment in a line: Antiviral activity against BVDV in MDBK cells. Particulars: Bovine viral diarrhea virus isolates and strains. The format is functional, organism-based.
In a further series the test system is Hepatitis C virus. Put plainly: Antiviral activity against HCV in Huh 5-2 cells. The format is functional, organism-based, Hepacivirus hominis.
A short description of series [3]: Cytotoxicity against Huh 5-2 cells. Format: cell-based. The settings on record: human.
A short description of series [4]: Cytotoxicity against MDBK cells. The format is cell-based, Bos taurus. Particulars: cattle.
Series [5] in a line: Selectivity index, ratio of CC50 for MDBK cells to EC50 for BVDV. The format is functional.

SMILES strings stand for the structures. pEC50: −log10 of the molar value.

On to `Fc1ccccc1-c1nc2ccn(CCOc3ccccc3)cc-2n1`, for which the “Ratio CC50/EC50” value in series [1] is recorded as 2; in series [5] it was >371. The pEC50 (commonly the EC50 on a negative log10 scale, so that one unit is a factor of ten) in series [2] was 6.55; in the series with Hepatitis C virus, 4.32. Besides, the results for the CC50 in series [3] and in series [4] were 96 µM and > 104 µM, respectively.
As to `Fc1cccc(-c2nc3ccn(Cc4ccc(OC(F)(F)F)cc4)cc-3n2)c1F`, the “Ratio CC50/EC50” value in series [1] is 405; in series [5], >500. Also, the negative-log EC50 (pEC50) (in series [2]; with Hepatitis C virus) was 6.70 in each case. Also, the half-maximal cytotoxic concentration (CC50) – broadly, the concentration at which the toxic effect on the cells reaches its halfway point – in series [3] was 81 µM; in series [4] it was > 100 µM.
